Test results published in PMC10987521, “An all-in-one tetrazine reagent for cysteine-selective labeling and bioorthogonal activable prodrug construction” (Nature Communications, 2024).

Experiments:
[1] = Body weight and organ histology in the B16F10 tumor model; type: in vivo, BALB/c nude mice
Experimental: (§1) The mice underwent four treatment courses on day 0, day 3, day 6, and day 9. Tumor size and body weight were measured every day. Tumor volume was calculated via the following formula: V = 1/2 × (minor axis) × (major axis)[2].
(§2) After 12 days, the mice were sacrificed and dissected to obtain tumor tissues and main organs, including heart, liver, spleen, lung, and kidney. Subsequently, all tissues were fixed in a 4% paraformaldehyde solution, routinely paraffin-embedded and sectioned, and then stained with hematoxylin and eosin, as well as using TdT-mediated dUTP nick-end labeling (TUNEL) for subsequent pathological analysis. TUNEL-positive cells appeared fluorescent green, representing the apoptosis of tumor cells (nuclei were fluorescent blue, stained with DAPI).

B16F10 cells [2] = test: Comparison of cell uptake between RGD-Dox and Dox using flow cytometry; type: cell-based, Mouse
Experimental: (§3) B16F10 cells were cultured for 48 h. […]
(§4) 12.1 Calculation of the fluorescence coefficient (F c)
(§5) The Fc was the radio calculated
(§6) 12.2 Uptake calculation of the B16F10 cells […]
(§7) deviation were analyzed using Origin Pro 2015.
(§8) B16F10 cells, characterized by α vβ3
(§9) Following the incubation period, the
Subsequently, the cells were trypsinized and underwent three PBS rinses. […]

LX2 cells = test: Cytotoxicity (CCK8, 48 h) of drugs, PDCs, activable-Drugs and TCO, LX2; type: cell-based, Human; conditions: Homo sapiens, LX-2; LX2 (αvβ3-negative), 48 h, CCK8, n = 3; activable-Dox: RGD-Dox 2 h, then 200 μM TCO
B16F10 melanoma tumor = test: In vivo anticancer efficacy, subcutaneous B16F10 melanoma tumor model; set-up: species or system BALB/c nude mice
Experimental: Tumor-bearing mice were established by subcutaneously injecting a suspension of 5 × 10^5 B16F10 cells per mouse into the front flank of each nude mouse. When tumor volume reached 50−70 mm^3, the animals were randomly divided into five groups (n = 5). The mice were administered different compounds suspended in PBS via the tail vein every 3 days for a total of four times.
as §1, §2
13. In vivo anticancer efficacy […]
13.2 Calculation of the tumor growth inhibition values (TGI)
Tumor growth inhibition values (TGI) were calculated using the following formula: TGI (%) = (1 − RTVtreatment/
RTVcontrol)*100. RTV refers to relative tumor volume, representing the ratio of the volume at the end of treatment to the
volume at the beginning of treatment. […]

U87 cells = test: Cytotoxicity (CCK8, 48 h) of drugs, PDCs, activable-Drugs and TCO, U87; type: cell-based, Human; conditions: Homo sapiens, U-87 MG; U87, 48 h, CCK8, n = 3; activable-Dox: RGD-Dox 2 h, then 200 μM TCO, 48 h in total
B16F10 cells [3] = test: Cell uptake by fluorescence imaging, B16F10; type: cell-based, Mouse; conditions: B16F10 and LX2 cells, 10 μM, 2 h
Experimental: as §3, §4, §5, §6, §7, §8, §9
Subsequently, the cells were trypsinized and underwent three PBS rinses.
12 .4 Cell uptake analysis by fluorescence imaging

[4] = system: B16F10, U87, SKOV3 and LX2 cells; test: Cytotoxicity (CCK8, 48 h), figures stated across several cell lines; type: cell-based; conditions: read-out: IC50 values against all four cell lines
SKOV3 cells = test: Cytotoxicity (CCK8, 48 h) of drugs, PDCs, activable-Drugs and TCO, SKOV3; type: cell-based, Human; conditions: Homo sapiens, SK-OV-3; SKOV3, 48 h, CCK8, n = 3; activable-Dox: RGD-Dox 2 h, then 200 μM TCO, 48 h in total
B16F10 cells [5] = test: Cytotoxicity (CCK8, 48 h) of drugs, PDCs, activable-Drugs and TCO, B16F10; type: cell-based, Mouse; conditions: Mus musculus, B16-F10; B16F10, 48 h, CCK8, n = 3; activable-Dox: RGD-Dox 2 h, then 200 μM TCO, 48 h in total
[6] = Labeling reaction kinetics between tetrazine 1 and Cys; type: physicochemical; conditions: 25 °C, PB (30% MeCN, 20 mM, pH 8.0), equal concentrations, UV-Vis 300 nm
Experimental: The second-order rate constant for the labeling reactions between tetrazine 1 and Cys was determined at 25 °C in PB (30% MeCN, 20 mM, pH 8.0) under second-order conditions using a 6000+ (Quawell) UV-Vis spectrophotometer. The concentrations of cysteine and tetrazine were identical. The specific difference in absorption wavelength (300 nm) between 1 and Cys-1 was measured over time. The second-order rate constant k2 was calculated from the slope of a plot of (1/c – 1/c0) versus time.
5. Competitive labeling reaction with other nucleophilic amino acids
For the competitive labeling experiment, 10 equiv. (2 mM) of N-Fmoc-Lys, N-Fmoc-Arg, Ser, Tyr, and 1.3 equiv. […] The resulting solution was maintained at 25 °C and monitored by LC –MS. […]
Each voTz analogue (1.1 equiv.) was added to a 0.25 mL vial containing solvent. […] The chromatogram peak areas of all relevant Cys -containing species were integrated, and the yiel d was determined using the following equation: Yield (%) = Iproduct/(Istarting + Iproduct + Ioxidation + Iside product) × 100, where Istarting, Iproduct, Ioxidation, and Iside product respectively represent the average ion counts of remaining starting material, product, oxidized starting material and any side product, if present 2. […]
DLS analyses and particle zeta potential values were determined using a Nano ZS ZEN 3690 instrument (Malvern […]

Row | SMILES | histology of heart, liver, spleen, lung, kidney ([1]; after 12 days) | body weight in words ([1]; four i.v. courses, 3.67 μmol·kg^−1, compared with PBS group) | Normalized uptake (B16F10 cells [2]; normalized to Dox = 1, Data 1) | Normalized uptake (B16F10 cells [2]; normalized to Dox = 1, Data 2) | Normalized uptake (B16F10 cells [2]; normalized to Dox = 1, Data 3) | IC50 (LX2 cells) | tumor growth inhibition values (TGI %) (B16F10 melanoma tumor; Data 5) | tumor growth inhibition value (TGI) (B16F10 melanoma tumor; after four i.v. courses (days 0, 3, 6, 9), 3.67 μmol·kg^−1, n = 5, TGI = (1 − RTVtreatment/RTVcontrol)*100) | tumor growth / inhibition in words (B16F10 melanoma tumor; four i.v. courses, 3.67 μmol·kg^−1 (TCO-P4 36.7 μmol·kg^−1), n = 5) | IC50 (U87 cells) | cellular uptake of free drug (imaging) (B16F10 cells [3]) | IC50 [4] | IC50 (SKOV3 cells) | IC50 (B16F10 cells [5]) | second-order rate constant of the labeling reaction between 1 and Cys [6]
1 | COc1cccc2c1C(=O)c1c(O)c3c(c(O)c1C2=O)C[C@@](O)(C(=O)CO)C[C@@H]3O[C@H]1C[C@H](N)[C@H](O)[C@H](C)O1 [Dox, doxorubicin] | typical inflammatory injury | serious loss of body weight | 1 | 1 | 1 | 3.37 µM | 46.63% | 59.4% | slightly slowed the tumor growth | 3.26 µM | obvious uptake through nonspecific diffusion and internalization | 2.05 to 4.45 µM | 4.45 µM | 2.05 µM | 
2 | C=Cc1nnc(-c2ccccc2)nn1 [compound 1, phenyl vinyltetrazine] |  |  |  |  |  |  |  |  |  |  |  |  |  |  | 13 ± 0.8 M⁻¹ s⁻¹
